Measured values taken from patent publication US20170269061A1, “METHOD FOR ASSESSING SENSITIVITY OF A TARGET DRUG IN VITRO AND A BIOMARKER USED THEREOF” (Tunghai University, priority 2016, published 2017).

Tests used:
SKBR-3 cells [1] = test: Immunofluorescence microscopy of drug localization (Cell Experiment I); format: cell-based; conditions: T-DM1 1 μg/ml or trastuzumab 10 μg/ml for 30 min, co-staining with caveolin-1
Description: (§1) After washing, each of the cells was fixed with 3.7% formaldehyde and permeabilized with 0.1% Triton-X 100. The fixed cells were incubated with rabbit anti-caveolin-1 antibody (1:100 dilution in PBS/0.1% Triton-100/3% BSA) at room temperature for 1 hour and then incubated with Cy3-conjugated anti-rabbit secondary antibodies (1:200 dilution in PBS/0.1% Triton-100/3% BSA) at room temperature for 1 hour.

BT-474 cells = test: as above; format: cell-based; conditions: T-DM1 1 μg/ml or trastuzumab 10 μg/ml for 30 min
Description: as §1

SKBR-3 cells [2] = conditions: 1 μg/ml T-DM1 vs 10 μg/ml trastuzumab, 72 hour, p<0.01
Description: After culturing each of the cells under different condition in example 7, 0.1 ml of 0.4% trypan blue and deionized water (1:1) was added. Dead cells were stained blue, while live cells remained unstained. Therefore, the number of dead cells could be estimated and cell viability estimated with a hemocytometer. Wherein, the cell mortality was expressed as the percentage of trypan blue-positive cells compared to the total number of cells and the viability percentage was presented by the number of live cells divided by the number of untreated control cells×100.

SKBR-3 cells [3] = conditions: SKBR-3 with caveolin-1 siRNA; T-DM1 72 hours; p<0.05
Description: BT-474 cells were grown on plates in normal growth medium without antibiotics, and Lipofectamine 2000 transfection reagent (Invitrogen, ThermoFisher, Waltham, Mass., USA) was used to induce GFP-tagged caveolin-1 (Addgene, Cambridge, Mass., USA) overexpression. Caveolin-1siRNA (Dharmacon, GE health care, Lafayette, Colo., USA) was used in the knockdown experiment in SKBR-3 cells.

SKBR-3 cells [4] = system: SKBR-3 cells
Description: Pro-survival protein Bcl-2 expression in each of the cells, culturing under different condition in example 7 at 48 hours, were determined by Western blot.
Using an annexin V detection kit (Invitrogen, ThermoFisher, Waltham, Mass., USA) to label cell surface phosphatidylserine of apoptotic cells and analysis these stained cells by flow cytometry. […] Co-staining images were taken by inverted fluorescence microscope shown in FIG. 15, wherein green color indicates annexin V positive apoptotic cell, red color indicates PI positive necrotic cell. Annexin V stained cells with PI positive staining were excluded as necrotic cells, apoptotic cells with only annexin V staining were counted and divided by total cells as the percentage of apoptosis. […] And, annexin V positive/PI negative apoptosis in FIG. 15 was quantified.

[5] = system: MDA-MB-231, SKBR-3 and BT-474 cells; test: Phase contrast observation of treated cells (Cell Experiment II); format: cell-based; conditions: 1 μg/ml paclitaxel, 72 hour; compared with 10 μg/ml trastuzumab and 1 μg/ml T-DM1

Molecule | localization of drug in cells (SKBR-3 cells [1]) | localization of drug in cells (BT-474 cells) | cell sensitivity (cell viability) versus trastuzumab (SKBR-3 cells [2]) | T-DM1 efficacy on CAV-1 knockdown (SKBR-3 cells [3]) | Bcl-2 expression level (SKBR-3 cells [4]; 1 μg/ml T-DM1, 48 hours, Western blot) | drug sensitivity (cell viability) with pan-caspase inhibitor Z-VAD-FMK (SKBR-3 cells [4]; 1 μg/ml T-DM1 plus Z-VAD-FMK) | necrotic cells (PI staining) (SKBR-3 cells [4]; T-DM1 treated) | percentage of apoptosis (annexin V) (SKBR-3 cells [4]; T-DM1 treated) | cytotoxicity (phase contrast) [5]
trastuzumab emtansine [T-DM1] | colocalized in the SKBR-3 cell membrane and cytosol | localized only in the cell membrane | significantly more sensitive | significantly reduced T-DM1 efficacy | lower level of Bcl-2 | decreased | fewer necrotic cells | increased percentage of apoptosis | 
CC(=O)O[C@H]1C(=O)[C@@]2(C)[C@H]([C@H](OC(=O)c3ccccc3)[C@]3(O)C[C@H](OC(=O)[C@H](O)[C@@H](NC(=O)c4ccccc4)c4ccccc4)C(C)=C1C3(C)C)[C@]1(OC(C)=O)CO[C@@H]1C[C@@H]2O [paclitaxel] |  |  |  |  |  |  |  |  | most cytotoxicity
